The source of these data is patent US8324176B2, “Pyrazole derivatives, medicinal composition containing the same, medicinal use thereof, and intermediate for production thereof” (Kissei Pharmaceutical Co., Ltd., priority 2002, dated 2012).

This test has as its target T1, human SGLT1 (Homo sapiens, UniProt P13866).
T1 construct: expressed in transfected cells
T1 sequence (P13866 1-664): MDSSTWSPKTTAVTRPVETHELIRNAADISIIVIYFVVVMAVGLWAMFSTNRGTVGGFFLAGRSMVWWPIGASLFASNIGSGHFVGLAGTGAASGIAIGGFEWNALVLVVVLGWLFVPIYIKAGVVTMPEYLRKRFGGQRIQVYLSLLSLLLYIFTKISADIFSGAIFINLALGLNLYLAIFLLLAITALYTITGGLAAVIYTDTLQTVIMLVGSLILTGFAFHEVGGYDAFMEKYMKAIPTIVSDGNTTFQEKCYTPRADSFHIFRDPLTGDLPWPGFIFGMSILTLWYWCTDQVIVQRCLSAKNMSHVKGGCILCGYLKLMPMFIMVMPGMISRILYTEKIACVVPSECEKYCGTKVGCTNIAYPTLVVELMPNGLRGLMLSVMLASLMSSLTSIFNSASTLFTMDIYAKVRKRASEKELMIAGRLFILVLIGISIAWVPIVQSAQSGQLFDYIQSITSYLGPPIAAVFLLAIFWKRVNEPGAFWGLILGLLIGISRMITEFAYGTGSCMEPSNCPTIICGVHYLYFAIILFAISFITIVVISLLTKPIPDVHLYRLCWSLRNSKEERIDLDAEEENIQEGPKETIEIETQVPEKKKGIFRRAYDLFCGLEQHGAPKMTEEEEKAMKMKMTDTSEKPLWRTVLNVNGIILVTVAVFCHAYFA
Nature of the test: Assay for inhibitory effects on human SGLT1 activity (uptake of methyl-α-D-glucopyranoside in CS1-5-11D cells). The format is cell-based. The settings on record: CHO-K1 cells stably expressing human SGLT1 (CS1-5-11D); 1 mM α-MG uptake, 37° C., 1 hour. How it is done: Assay for Inhibitory Effects on Human SGLT1 Activity
1) Cloning and Construction of the Vector Expressing Human SGLT1
The cDNA library was prepared for PCR amplification by reverse transcription from total RNA deprived from human small intestine (Ori gene) using oligo-dT as a primer.
2) Establishment of Cell Line Stably Expressing Human SGLT1
The expression vector of human SGLT1 was digested by Sca I into a linear DNA. The linear DNA was transfected into CHO-K1 cells by means of lipofection (Effectene Transfection Reagent: QIAGEN). Neomycin resistant cell lines were selected by culture in the medium containing G418 (1 mg/mL, LIFE TECHNOLOGIES), and then the activity against the uptake of methyl-α-D-glucopyranoside was measured by the method described below. […] CS1-5-11D cells were cultured in the presence of G418 at 200 μg/mL.
3) Measurement of the Inhibitory Activity Against the Uptake of Methyl-α-D-glucopyranoside (α-MG)
CS1-5-11D cells were seeded into a 96-well culture plate at a density of 3×10^4 cells/well and cultured for 2 days, and were used in the uptake assay. A mixture of non-labeled (Sigma) and ^14C-labeled α-MG (Amersham Pharmcia Biotec) was added to the uptake buffer (pH 7.4: containing 140 mM sodium chloride, 2 mM potassium chloride, 1 mM calcium chloride, 1 mM magnesium chloride, 10 mM 2-[4-(2-hydroxyethyl)-1-piperazinyl]ethane sulfonic acid, and 5 mM tris(hydroxymethyl)aminomethane) at the final concentration of 1 mM. A test compound was dissolved in dimethyl sulfoxide, and then appropriately diluted with distilled water. The test compound solution was added to the uptake buffer containing 1 mM α-MG, and designated as a measurement buffer. For the control group, the measurement buffer without any test compound was prepared. For measuring the basal uptake, a basal uptake measurement buffer which contains 140 mM chorine chloride instead of sodium chloride was prepared. After removing the culture medium of CS1-5-11D cells, 180 μL of the pre-treatment buffer (the basal uptake buffer without α-MG) was added to each well and incubated at 37° C. for 10 minutes. After repeating the same treatment, the pre-treatment buffer was removed. To each well was added 75 μL of the measurement buffer or the basal uptake buffer was added and incubated at 37° C. for 1 hour. After removing the measurement buffer, cells were washed twice with 180 μL per well of the washing buffer (the basal uptake buffer containing 10 mM non-labeled α-MG). The cells were solubilized by 75 μL per well of 0.2 mol/L sodium hydroxide. The cell lysates were transferred into PicoPlates (Packard), and then added 150 μL of MicroScint-40 (Packard) and mixed. Radioactivity was measured by means of micro-scintillation counter TopCount (Packard). One hundred was set to the difference between the uptake in the control group and the basal uptake, and the uptake of methyl α-D-glucopyranoside a teach drug concentration were calculated.
For `Cc1cc(OCCCN)ccc1Cc1c(O[C@@H]2O[C@H](CO)[C@@H](O)[C@H](O)[C@H]2O)n[nH]c1C(C)C` [Example 9, 4-{[4-(3-Aminopropoxy)-2-methylphenyl]methyl}-3-(β-D-glucopyranosyloxy)-5-isopropyl-1H-pyrazole], the midpoint of inhibition, the IC50, lay at 42 nM.

In the case of `CC(C)c1[nH]nc(O[C@@H]2O[C@H](CO)[C@@H](O)[C@H](O)[C@H]2O)c1Cc1ccc(OCCCNC(=O)NC(CO)CO)cc1` [Example 22, 3-(β-D-Glucopyranosyloxy)-4-{[4-(3-{3-[2-hydroxy-1-(hydroxymethyl)ethyl]ureido}propoxy)phenyl]methyl}-5-isopropyl-1H-pyrazole], half-maximal inhibition (IC50) required 233 nM.

For `Cc1cc(OCCCNC(=O)NC(C)(CO)CO)ccc1Cc1c(O[C@@H]2O[C@H](CO)[C@@H](O)[C@H](O)[C@H]2O)n[nH]c1C(C)C` [Example 28, 3-(β-D-Glucopyranosyloxy)-4-{[4-(3-{3-[2-hydroxy-1-(hydroxymethyl)-1-(methyl)ethyl]ureido}propoxy)-2-methylphenyl]methyl}-5-isopropyl-1H-pyrazole], the midpoint of inhibition, the IC50, lay at 90 nM.

For `Cc1cc(OCCCNC(=O)NC(C)(C)CO)ccc1Cc1c(O[C@@H]2O[C@H](CO)[C@@H](O)[C@H](O)[C@H]2O)n[nH]c1C(C)C` [Example 29, 3-(β-D-Glucopyranosyloxy)-4-{[4-(3-(3-[2-hydroxy-1,1-di(methyl)ethyl]ureido)propoxy)-2-methylphenyl]methyl}-5-isopropyl-1H-pyrazole], inhibition was half-maximal at 19 nM (IC50).

`Cc1cc(OCCCNC(=O)NCCO)ccc1Cc1c(O[C@@H]2O[C@H](CO)[C@@H](O)[C@H](O)[C@H]2O)n[nH]c1C(C)C` [Example 30, 3-(β-D-Glucopyranosyloxy)-4-[(4-(3-[3-(2-hydroxyethyl)ureido]propoxy)-2-methylphenyl)methyl]-5-isopropyl-1H-pyrazole]: the half-inhibitory concentration (IC50) – broadly, the point on the concentration scale where inhibition reaches its midpoint – is 257 nM.

`Cc1cc(OCCNC(=O)NC(C)(C)C(N)=O)ccc1Cc1c(O[C@@H]2O[C@H](CO)[C@@H](O)[C@H](O)[C@H]2O)n[nH]c1C(C)C` [Example 31, 4-{[4-(2-{3-[1-Carbamoyl-1-(methyl)ethyl]ureido}ethoxy)-2-methylphenyl]methyl}-3-(β-D-glucopyranosyloxy)-5-isopropyl-1H-pyrazole] came in with a 50% inhibitory concentration (IC50) of 166 nM.

Consider `Cc1cc(OCCNC(=O)NC(C)(CO)CO)ccc1Cc1c(O[C@@H]2O[C@H](CO)[C@@H](O)[C@H](O)[C@H]2O)n[nH]c1C(C)C` [Example 32, 3-(β-D-Glucopyranosyloxy)-4-{[4-(2-{3-[2-hydroxy-1-(hydroxymethyl)-1-(methyl)ethyl]ureido}ethoxy)-2-methylphenyl]methyl}-5-isopropyl-1H-pyrazole], for which inhibition was half-maximal at 113 nM (IC50).

As for `Cc1cc(OCCNC(=O)NC(C)(C)CO)ccc1Cc1c(O[C@@H]2O[C@H](CO)[C@@H](O)[C@H](O)[C@H]2O)n[nH]c1C(C)C` [Example 33, 3-(β-D-Glucopyranosyloxy)-4-{[4-(2-{3-[2-hydroxy-1,1-di(methyl)ethyl]ureido}ethoxy)-2-methylphenyl]methyl}-5-isopropyl-1H-pyrazole], the half-maximal inhibitory concentration (IC50) worked out at 65 nM.

`CNC(=NC#N)NCCCOc1ccc(Cc2c(O[C@@H]3O[C@H](CO)[C@@H](O)[C@H](O)[C@H]3O)n[nH]c2C(C)C)cc1` [Example 36, 4-({4-[3-(2-Cyano-3-methylguanidino)propoxy]phenyl}methyl)-3-(β-D-glucopyranosyloxy)-5-isopropyl-1H-pyrazole] gave an IC50 of 383 nM.

For the compound `CC(C)c1[nH]nc(O[C@@H]2O[C@H](CO)[C@@H](O)[C@H](O)[C@H]2O)c1Cc1ccc(OCCCNS(N)(=O)=O)cc1` [Example 38, 3-(β-D-Glucopyranosyloxy)-5-isopropyl-4-({4-[3-(sulfamoylamino)propoxy]phenyl}methyl)-1H-pyrazole], the IC50 worked out at 246 nM.

Regarding `CC(C)c1[nH]nc(O[C@@H]2O[C@H](CO)[C@@H](O)[C@H](O)[C@H]2O)c1Cc1ccc(OCCCNC(C)(C)C(N)=O)cc1` [Example 48, 4-[(4-{3-[1-Carbamoyl-1-(methyl)ethylamino]propoxy}phenyl)methyl]-3-(β-D-glucopyranosyloxy)-5-isopropyl-1H-pyrazole], the IC50 worked out at 54 nM.

Compound `Cc1cc(OCCNCC(N)=O)ccc1Cc1c(O[C@@H]2O[C@H](CO)[C@@H](O)[C@H](O)[C@H]2O)n[nH]c1C(C)C` [Example 49, 4-({4-[2-(Carbamoylmethylamino)ethoxy]-2-methylphenyl}methyl)-3-(1-D-glucopyranosyloxy)-5-isopropyl-1H-pyrazole] yielded an IC50 of 148 nM.

Turning to `Cc1cc(OCCNCCC(N)=O)ccc1Cc1c(O[C@@H]2O[C@H](CO)[C@@H](O)[C@H](O)[C@H]2O)n[nH]c1C(C)C` [Example 50], the IC50 was determined as 159 nM.

Regarding `Cc1cc(OCCCNC(C)(C)C(N)=O)ccc1Cc1c(O[C@@H]2O[C@H](CO)[C@@H](O)[C@H](O)[C@H]2O)n[nH]c1C(C)C` [Example 51, 4-[(4-{3-[1-Carbamoyl-1-(methyl)ethylamino]propoxy}-2-methylphenyl)methyl]-3-(β-D-glucopyranosyloxy)-5-isopropyl-1H-pyrazole], the 50% inhibitory concentration (IC50) came out at 22 nM.

`Cc1cc(OCCCNC(C)(C)CO)ccc1Cc1c(O[C@@H]2O[C@H](CO)[C@@H](O)[C@H](O)[C@H]2O)n[nH]c1C(C)C` [Example 57, 3-(β-D-Glucopyranosyloxy)-4-[(4-(3-[2-hydroxy-1,1-di(methyl)ethylamino]propoxy)-2-methylphenyl)methyl]-5-isopropyl-1H-pyrazole]: the half-maximal inhibitory concentration (IC50) was 43 nM.

Consider `Cc1cc(OCCCNCCO)ccc1Cc1c(O[C@@H]2O[C@H](CO)[C@@H](O)[C@H](O)[C@H]2O)n[nH]c1C(C)C` [Example 58, 3-(β-D-Glucopyranosyloxy)-4-({4-[3-(2-hydroxyethylamino)propoxy]-2-methylphenyl}methyl)-5-isopropyl-1H-pyrazole], for which it took 100 nM to reach half-maximal inhibition (IC50).

Consider `CC(C)c1[nH]nc(O[C@@H]2O[C@H](CO)[C@@H](O)[C@H](O)[C@H]2O)c1Cc1ccc(OCCCNC(C)(C)CO)cc1` [Example 61, 3-(β-D-Glucopyranosyloxy)-4-[(4-(3-[2-hydroxy-1,1-di(methyl)ethylamino]propoxy)phenyl)methyl]-5-isopropyl-1H-pyrazole], for which it took 199 nM to reach half-maximal inhibition (IC50).

Compound `Cc1cc(OCCNC(CO)CO)ccc1Cc1c(O[C@@H]2O[C@H](CO)[C@@H](O)[C@H](O)[C@H]2O)n[nH]c1C(C)C` [Example 62, 3-(β-D-Glucopyranosyloxy)-4-[(4-{2-[2-hydroxy-1-(hydroxymethyl)ethylamino]ethoxy}-2-methylphenyl)methyl]-5-isopropyl-1H-pyrazole] came in with an IC50 of 138 nM.

The compound `Cc1cc(OCCNCCO)ccc1Cc1c(O[C@@H]2O[C@H](CO)[C@@H](O)[C@H](O)[C@H]2O)n[nH]c1C(C)C` [Example 63, 3-(β-D-Glucopyranosyloxy)-4-({4-[2-(2-hydroxyethylamino)ethoxy]-2-methylphenyl}methyl)-5-isopropyl-1H-pyrazole] showed an IC50 of 322 nM.
